Source: patent publication US11834454B2, “Alkynylphenylbenzamide compounds and applications thereof” (SHENZHEN NEWDEL BIOTECH CO., LTD., priority 2021, dated 2023)

Assays:
TRKA = target: T1, TRKA (Homo sapiens, UniProt P04629); test: Z'-LYTE kinase activity detection, TRKA; assay type: biochemical
T1 construct: purchased American Life Technologies PV3144

TRKB = target: T2, TRKB (Homo sapiens, UniProt Q16620); test: Z'-LYTE kinase activity detection, TRKB; assay type: biochemical
T2 construct: purchased American Life Technologies PV3616

TRKC = target: T3, TRKC (Homo sapiens, UniProt Q16288); test: Z'-LYTE kinase activity detection, TRKC; assay type: biochemical
T3 construct: purchased American Life Technologies PV3617

BaF3-CD74-NTRK1 = target: T4, BaF3-CD74-NTRK1 (Homo sapiens, UniProt P04629); test: Cell proliferation inhibition, Ba/F3-TRKs stable strain (CCK-8); assay type: cell-based, mouse; conditions: 72 hours, read-out: cell viability IC50 CD74-NTRK1
T4 construct: fused on or other part: P04233 (HLA class II histocompatibility antigen gamma chain)
Source text: (§1) The BaF3 cells (mouse pre-B cells) used in this experiment were purchased from the Japanese Cell Bank. All of the monoclonal stable strains, BaF3-CD74-NTRK1, BaF3-ETV6-NTRK2 and BaF3-ETV6-NTRK3 were constructed by our laboratory, and were identified by experiments such as positive control, protein expression and gene sequencing.
(§2) The brief steps of stable strain construction were as follows: constructed pCDNA3.1(+) plasmid vector carrying genes such as CD74-NTRK1, ETV6-NTRK2, ETV6-NTRK3; the plasmid was electroporated into Ba/F3 cells using Amaxa® Cell Line Nucleofector® Kit V; 48 hours after electroporation, geneticin (G418) with a final concentration of 1000 μg/mL was added to screen for two weeks, and the interleukin 3 (IL3) was removed to continue screening to obtain polyclonal stable strains; and then single clones were selected by limiting dilution method; the stable strains were then identified by the positive drugs, Western Blot (WB), and gene sequencing; the correct monoclonal through identification can be used to study the cell proliferation inhibitory activity of the inhibitors.
(§3) Cell proliferation inhibitory activity study: The cells in logarithmic growth phase were seeded into 96-well plates at 8000-12000 cells/well, and the inhibitors at different concentrations of (0-10 μM) were added the next day, and the culture was continued for 72 hours; then 10 μL of Cell Counting Kit-8 Cell Counting Reagent (CCK-8 Reagent) was added to each well, and continued to incubate for 1-3 hours; then its absorbance at 450 nm and 650 nm were measured with a super microplate reader. The median inhibitory concentration (IC50) was calculated using medical graphing software (GraphPad Prism 8.0.0).

BaF3-ETV6-NTRK2 = target: T5, BaF3-ETV6-NTRK2 (Homo sapiens, UniProt Q16620); test: as above; assay type: cell-based, mouse; conditions: 72 hours, read-out: cell viability IC50 ETV6-NTRK2
T5 construct: fused on or other part: P41212 (Transcription factor ETV6)
Source text: as §1, §2, §3

BaF3-ETV6-NTRK3 = target: T6, BaF3-ETV6-NTRK3 (Homo sapiens, UniProt Q16288); test: as above; assay type: cell-based, mouse; conditions: 72 hours, read-out: cell viability IC50 ETV6-NTRK3
T6 construct: fused on or other part: P41212 (Transcription factor ETV6)
Source text: as §1, §2, §3

T4 sequence (P04629 510-796 limits assumed): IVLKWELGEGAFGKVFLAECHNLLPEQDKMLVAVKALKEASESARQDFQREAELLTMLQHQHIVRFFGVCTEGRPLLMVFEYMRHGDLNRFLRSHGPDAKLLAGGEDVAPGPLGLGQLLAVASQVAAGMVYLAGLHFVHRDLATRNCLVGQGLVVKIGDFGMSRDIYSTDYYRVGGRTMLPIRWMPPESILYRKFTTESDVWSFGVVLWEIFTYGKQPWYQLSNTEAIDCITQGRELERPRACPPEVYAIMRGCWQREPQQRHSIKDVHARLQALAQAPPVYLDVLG
T1 sequence (P04629 33-796): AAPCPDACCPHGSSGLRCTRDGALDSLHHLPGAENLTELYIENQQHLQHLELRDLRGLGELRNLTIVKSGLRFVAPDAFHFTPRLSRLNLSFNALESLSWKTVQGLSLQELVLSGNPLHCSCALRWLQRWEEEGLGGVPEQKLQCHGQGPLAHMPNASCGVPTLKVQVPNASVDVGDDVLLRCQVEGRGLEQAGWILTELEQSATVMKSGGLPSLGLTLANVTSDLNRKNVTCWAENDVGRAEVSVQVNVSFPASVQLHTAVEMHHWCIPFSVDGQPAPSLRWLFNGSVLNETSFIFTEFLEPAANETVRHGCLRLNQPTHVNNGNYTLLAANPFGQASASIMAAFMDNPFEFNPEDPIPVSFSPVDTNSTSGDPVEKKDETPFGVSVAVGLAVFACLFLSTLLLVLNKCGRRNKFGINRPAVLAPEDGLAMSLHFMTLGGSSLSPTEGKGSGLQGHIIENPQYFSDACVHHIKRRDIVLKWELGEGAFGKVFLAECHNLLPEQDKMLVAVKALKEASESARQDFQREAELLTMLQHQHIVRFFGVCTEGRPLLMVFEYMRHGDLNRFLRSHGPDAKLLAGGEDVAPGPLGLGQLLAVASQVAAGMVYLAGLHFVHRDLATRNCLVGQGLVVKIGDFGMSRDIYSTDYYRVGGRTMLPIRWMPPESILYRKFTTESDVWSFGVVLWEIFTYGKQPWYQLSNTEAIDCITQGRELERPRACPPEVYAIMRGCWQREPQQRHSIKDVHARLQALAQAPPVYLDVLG
T6 sequence (Q16288 whole entry, the tested form may be a part): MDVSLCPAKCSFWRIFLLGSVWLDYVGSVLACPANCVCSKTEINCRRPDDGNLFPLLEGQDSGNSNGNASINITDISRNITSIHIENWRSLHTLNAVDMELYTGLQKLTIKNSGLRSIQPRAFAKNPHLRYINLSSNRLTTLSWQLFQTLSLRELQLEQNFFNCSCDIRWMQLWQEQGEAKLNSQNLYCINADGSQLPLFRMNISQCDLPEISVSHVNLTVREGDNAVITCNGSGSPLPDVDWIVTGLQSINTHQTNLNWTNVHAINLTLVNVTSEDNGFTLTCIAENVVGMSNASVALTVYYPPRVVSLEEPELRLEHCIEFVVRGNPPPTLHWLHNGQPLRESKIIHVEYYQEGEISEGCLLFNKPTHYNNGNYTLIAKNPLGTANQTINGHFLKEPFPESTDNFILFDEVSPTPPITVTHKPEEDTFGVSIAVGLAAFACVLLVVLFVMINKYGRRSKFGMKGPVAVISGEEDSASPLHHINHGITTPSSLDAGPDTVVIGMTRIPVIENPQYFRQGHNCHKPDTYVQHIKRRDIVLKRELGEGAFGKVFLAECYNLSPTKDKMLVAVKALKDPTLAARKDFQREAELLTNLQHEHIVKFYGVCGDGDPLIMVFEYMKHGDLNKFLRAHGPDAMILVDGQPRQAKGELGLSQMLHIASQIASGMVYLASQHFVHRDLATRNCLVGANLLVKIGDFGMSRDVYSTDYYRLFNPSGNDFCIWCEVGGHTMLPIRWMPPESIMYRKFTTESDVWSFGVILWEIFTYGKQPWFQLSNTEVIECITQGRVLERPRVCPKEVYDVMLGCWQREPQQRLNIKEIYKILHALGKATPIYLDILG
T2 sequence (Q16620 32-822): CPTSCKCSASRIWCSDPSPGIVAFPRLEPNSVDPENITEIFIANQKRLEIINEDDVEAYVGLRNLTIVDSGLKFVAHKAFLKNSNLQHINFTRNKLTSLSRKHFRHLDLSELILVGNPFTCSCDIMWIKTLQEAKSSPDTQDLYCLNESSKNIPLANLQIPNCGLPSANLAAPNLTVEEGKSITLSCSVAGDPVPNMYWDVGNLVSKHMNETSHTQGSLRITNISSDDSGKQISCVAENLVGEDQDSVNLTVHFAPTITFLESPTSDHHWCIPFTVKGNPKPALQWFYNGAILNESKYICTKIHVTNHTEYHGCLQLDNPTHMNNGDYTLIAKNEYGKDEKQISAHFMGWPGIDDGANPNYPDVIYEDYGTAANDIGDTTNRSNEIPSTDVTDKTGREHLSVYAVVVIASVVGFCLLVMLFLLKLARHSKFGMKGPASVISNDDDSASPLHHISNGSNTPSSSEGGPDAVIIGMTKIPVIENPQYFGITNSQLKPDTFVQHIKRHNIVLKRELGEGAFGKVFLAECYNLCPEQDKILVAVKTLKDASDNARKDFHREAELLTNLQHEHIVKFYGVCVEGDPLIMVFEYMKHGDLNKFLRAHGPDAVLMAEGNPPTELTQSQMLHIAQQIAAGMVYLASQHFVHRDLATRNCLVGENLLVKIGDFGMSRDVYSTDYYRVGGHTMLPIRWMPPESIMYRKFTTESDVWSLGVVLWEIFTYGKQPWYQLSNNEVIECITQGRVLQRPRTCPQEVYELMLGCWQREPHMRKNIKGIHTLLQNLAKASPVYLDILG
T5 sequence (Q16620 538-822 limits assumed): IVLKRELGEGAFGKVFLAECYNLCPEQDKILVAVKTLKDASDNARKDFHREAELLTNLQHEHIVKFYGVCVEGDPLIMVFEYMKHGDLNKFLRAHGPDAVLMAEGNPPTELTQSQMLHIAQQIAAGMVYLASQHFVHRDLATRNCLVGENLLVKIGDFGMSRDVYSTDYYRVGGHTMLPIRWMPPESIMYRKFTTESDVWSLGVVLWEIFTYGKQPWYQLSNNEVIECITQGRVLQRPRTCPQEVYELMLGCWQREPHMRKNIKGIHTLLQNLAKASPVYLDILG
T3 sequence (Q16288 32-839): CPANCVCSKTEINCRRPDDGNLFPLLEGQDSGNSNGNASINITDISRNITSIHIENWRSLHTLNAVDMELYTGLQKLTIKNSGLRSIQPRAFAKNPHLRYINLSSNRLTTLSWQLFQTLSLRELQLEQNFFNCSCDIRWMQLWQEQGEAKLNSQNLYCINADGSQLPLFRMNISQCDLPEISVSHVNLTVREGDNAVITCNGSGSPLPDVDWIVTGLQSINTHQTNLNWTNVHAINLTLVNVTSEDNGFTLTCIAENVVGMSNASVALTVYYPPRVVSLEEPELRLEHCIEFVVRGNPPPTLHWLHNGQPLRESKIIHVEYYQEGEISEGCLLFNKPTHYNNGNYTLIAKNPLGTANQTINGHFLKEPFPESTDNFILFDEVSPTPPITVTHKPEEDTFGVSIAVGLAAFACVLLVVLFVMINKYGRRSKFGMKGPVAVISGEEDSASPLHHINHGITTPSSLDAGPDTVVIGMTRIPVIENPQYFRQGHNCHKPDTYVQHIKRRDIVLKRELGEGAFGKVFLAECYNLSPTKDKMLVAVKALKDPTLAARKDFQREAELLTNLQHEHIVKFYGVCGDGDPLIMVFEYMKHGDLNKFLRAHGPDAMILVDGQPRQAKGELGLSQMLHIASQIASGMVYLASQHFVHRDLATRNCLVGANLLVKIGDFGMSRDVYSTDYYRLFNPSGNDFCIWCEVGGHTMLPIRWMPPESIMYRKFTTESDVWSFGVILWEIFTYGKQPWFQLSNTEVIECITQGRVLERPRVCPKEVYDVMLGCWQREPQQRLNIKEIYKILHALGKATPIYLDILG

Compound	IC50 (TRKA)	IC50 (TRKB)	IC50 (TRKC)	IC50 (BaF3-CD74-NTRK1)	IC50 (BaF3-ETV6-NTRK2)	IC50 (BaF3-ETV6-NTRK3)
Cc1c(C#Cc2cnc3ccc(N4CCN(C5COC5)CC4)nn23)cccc1C(=O)Nc1cc(Cl)cc(C(F)(F)F)c1 [XS3-138, N-(3-CHLORO-5-(TRIFLUOROMETHYL)PHENYL)-2-METHYL-3-((6-(4-(OXETAN-3-YL)PIPERAZINE)-1-YL)IMIDAZO[1,2-B]PYRIDAZIN-3-YL)ETHYNYL)BENZAMIDE]	0.01 to 0.1 µM	< 0.01 µM	< 0.01 µM	0.01 to 0.1 µM	0.01 to 0.1 µM	< 0.01 µM
Cc1c(C#Cc2cnc3ccc(N4CCOCC4)nn23)cccc1C(=O)Nc1cc(F)cc(C(F)(F)F)c1 [XS4-80]	0.01 to 0.1 µM	–	0.01 to 0.1 µM	0.01 to 0.1 µM	0.01 to 0.1 µM	0.01 to 0.1 µM
Cc1c(C#Cc2cnc3ccc(N4CC[C@H](O)C4)nn23)cccc1C(=O)Nc1cccc(C(F)(F)F)c1 [XS3-35, (S)-3-((6-(3-HYDROXYPYRROLIDIN-1-YL)IMIDAZO[1,2-B]PYRIDAZIN-3-YL)ETHYNYL)-2-METHYL-N-(3-(TRIFLUOROMETHYL)PHENYL)BENZAMIDE]	< 0.01 µM	0.01 to 0.1 µM	< 0.01 µM	0.01 to 0.1 µM	0.1 to 1 µM	0.01 to 0.1 µM
Cc1c(C#Cc2cnc3cccnn23)cccc1C(=O)Nc1cc(F)cc(C(F)(F)F)c1 [XS2-109, N-(3-FLUORO-5-(TRIFLUOROMETHYL)PHENYL)-3-(IMIDAZO[1,2-B]PYRIDAZIN-3-YLETHYNYL)-2-METHYLBENZENE FORMAMIDE]	0.1 to 1 µM	> 1 µM	0.1 to 1 µM	–	–	–
Cc1c(C#Cc2cnc3ccc(N4CCOCC4)nn23)cccc1C(=O)Nc1cc(Cl)cc(C(F)(F)F)c1 [XS3-61, N-(3-CHLORO-5-(TRIFLUOROMETHYL)PHENYL)-2-METHYL-3-((6-MORPHOLINIMIDAZO[1,2-B]PYRIDAZINE-3-YL)ETHYNYL)BENZAMIDE]	0.01 to 0.1 µM	0.01 to 0.1 µM	0.01 to 0.1 µM	0.01 to 0.1 µM	–	0.01 to 0.1 µM
Cc1c(C#Cc2cnc3cccnn23)cccc1C(=O)Nc1cc(CN2CCN(C)CC2)cc(C(F)(F)F)c1 [XS116]	0.01 to 0.1 µM	0.01 to 0.1 µM	0.01 to 0.1 µM	0.1 to 1 µM	0.1 to 1 µM	0.1 to 1 µM
COCCNc1ccc2ncc(C#Cc3cccc(C(=O)Nc4cc(Cl)cc(C(F)(F)F)c4)c3C)n2n1 [XS3-135, N-(3-CHLORO-5-(TRIFLUOROMETHYL)PHENYL)-3-((6-((2-METHOXYETHYL)AMINO)IMIDAZO[1,2-B] PYRIDAZIN-3-YL)ETHYNYL)-2-METHYLBENZAMIDE]	0.01 to 0.1 µM	0.01 to 0.1 µM	0.01 to 0.1 µM	0.1 to 1 µM	0.1 to 1 µM	0.01 to 0.1 µM
CC(=O)N1CCN(c2ccc3ncc(C#Cc4cccc(C(=O)Nc5cc(Cl)cc(C(F)(F)F)c5)c4C)n3n2)CC1 [XS3-54, 3-((6-(4-ACETYLPIPERAZIN-1-YL)IMIDAZO[1,2-B]PYRIDAZIN-3-YL)ETHYNYL)-N-(3-CHLORO-5-(TRIFLUORO) METHYL)PHENYL)-2-METHYLBENZAMIDE]	< 0.01 µM	0.01 to 0.1 µM	< 0.01 µM	0.01 to 0.1 µM	0.01 to 0.1 µM	0.01 to 0.1 µM
Cc1c(C#Cc2cnc3ccc(N(C)CCN(C)C)nn23)cccc1C(=O)Nc1cc(Cl)cc(C(F)(F)F)c1 [XS3-134, N-(3-CHLORO-5-(TRIFLUOROMETHYL)PHENYL)-3-((6-((2-(DIMETHYLAMINO)ETHYL)(METHYL)AMINO)IMIDAZO[1,2-B]PYRIDAZIN-3-YL)ETHYNYL)-2-METHYLBENZAMIDE]	0.01 to 0.1 µM	0.01 to 0.1 µM	0.01 to 0.1 µM	0.1 to 1 µM	0.1 to 1 µM	0.01 to 0.1 µM
Cc1cc(NC(=O)c2cccc(C#Cc3cnc4ccc(N5CCOCC5)nn34)c2C)cc(C(F)(F)F)c1 [XS4-81]	0.01 to 0.1 µM	–	0.01 to 0.1 µM	0.01 to 0.1 µM	0.01 to 0.1 µM	< 0.01 µM
Cc1c(C#Cc2cnc3cccnn23)cccc1C(=O)Nc1cccc(C(F)(F)F)c1 [XS2-106]	0.1 to 1 µM	> 1 µM	–	0.1 to 1 µM	0.1 to 1 µM	–
